Data reported in patent US8258140B2 (Astrazeneca AB, priority 2009, dated 2012).

Target: T1, isolated rat AR-LBD (Rattus norvegicus, UniProt P15207)
T1 construct: purchased Invitrogen PV4293
T1 sequence (P15207 651-882 limits assumed): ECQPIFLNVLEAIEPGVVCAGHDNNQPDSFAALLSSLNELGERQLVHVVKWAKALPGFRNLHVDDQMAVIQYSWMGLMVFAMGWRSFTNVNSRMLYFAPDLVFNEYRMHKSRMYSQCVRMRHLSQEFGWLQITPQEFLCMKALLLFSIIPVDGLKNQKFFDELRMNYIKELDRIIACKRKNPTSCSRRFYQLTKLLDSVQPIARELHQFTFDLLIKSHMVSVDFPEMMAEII
Assay: Androgen Receptor Ligand Binding Domain Competitive Binding Assay (fluorescence polarisation, PolarScreen)
Settings: FP, 12 nM AR-LBD, 2 nM fluormone, 4-6 hours at room temperature, 50% reduction in tracer binding; read-out: Androgen Receptor Ligand Binding Domain Competitive Binding Assay (b) IC50/μM
Experimental: The ability of compounds to bind to isolated Androgen Receptor Ligand binding domain (AR-LBD) was assessed in competition assays using a Fluorescence Polarisation (FP) detection end-point.
For the FP test, an assay test kit was purchased from Invitrogen and used to measure compound binding to the isolated rat AR-LBD which shares 100% sequence identity to the human AR-LBD. The Invitrogen PolarScreen™ Androgen Receptor Competitor Assay Red (Product Code No. PV4293), is a fluorescence polarisation (FP)—based competition assay which measures if test compound can displace a fluorescently-labelled tracer compound. If the test compound binds to the AR-LBD it will prevent the formation of the receptor/tracer complex, which will result in a low polarisation value.
The assay was performed as follows with all reagent additions carried out using the Thermo Scientific Matrix PlateMate: • 1. Acoustic dispense 120 nl of the test compound into a black low volume 384 well assay plates. • 2. Volumes of reagents are added to give the following final concentrations of assay components:—0.5 mM DTT, 2 nM fluormone, 12 nM AR-LBD in the Invitrogen Assay Buffer • 3. Dispense 15 μl of the assay mix into each well of the assay plate • 4. Cover the assay plate to protect the reagents from light and evaporation, and incubate at room temperature for 4-6 hours. • 5. Excite at […] and measure the fluorescent emission signal of each well at 590 nm in FP mode using the BMG PheraSTAR or other suitable plate reader.
Compounds were dosed directly from a compound source microplate containing serially diluted compound (4 wells containing 10 mM, 0.1 mM, 1 μM and 10 nM final compound respectively) to an assay microplate using an Labcyte Echo 550. The Echo 550 is a liquid handler that uses acoustic technology to perform direct microplate-to-microplate transfers of DMSO compound solutions and the system can be programmed to transfer multiple small nL volumes of compound from the different source plate wells to give the desired serial dilution of compound in the assay which is then back-filled to normalise the DMSO concentration across the dilution range. In total 120 nL of compound plus DMSO was added to each well and compounds tested in a 12-point concentration response format over a final compound concentration range of 100, 30, 10, 3, 1, 0.3, 0.1, 0.03, 0.01, 0.003, 0.001, 0.0001 μM, respectively.
FP dose response data obtained with each compound was exported into a suitable software package (such as Origin) to perform curve fitting analysis. Competitive AR binding may be expressed as an IC50 value. This is determined by calculation of the concentration of compound that is required to give a 50% reduction in tracer compound binding to AR-LBD.

Compound	IC50
CC(=O)N1CCN(CCOc2ccc(C3CCN(C4=Nn5c(nnc5C(F)(F)F)CC4)CC3)cc2)C[C@H]1C [Example 51, 6-[4-(4-{2-[(3R)-4-acetyl-3-methylpiperazin-1-yl]ethoxy}phenyl)piperidin-1-yl]-3-(trifluoromethyl)-7,8-dihydro[1,2,4]triazolo[4,3-b]pyridazine]	30.3 µM
CC(=O)N1CCN(CCOc2ccc(C3CCN(C4=Nn5c(nnc5C(F)(F)F)CC4)CC3)cc2)CC1 [Example 5.1, 6-(4-{4-[2-(4-acetylpiperazin-1-yl)ethoxy]phenyl}piperidin-1-yl)-3-(trifluoromethyl)-7,8-dihydro[1,2,4]triazolo[4,3-b]pyridazine]	22.9 µM
CN1CCN(CCOc2ccc(C3CCN(C4=Nn5c(nnc5C(F)(F)F)CC4)CC3)cc2)CC1=O [Example 37, 1-methyl-4-[2-(4-{1-[3-(trifluoromethyl)-7,8-dihydro[1,2,4]triazolo[4,3-b]pyridazin-6-yl]piperidin-4-yl}phenoxy)ethyl]piperazin-2-one]	61.9 µM
CC(=O)N1CCN(CCCOc2ccc(C3CCN(C4=Nn5c(nnc5C(F)(F)F)CC4)CC3)cc2)CC1 [Example 4.1, 6-[4-[4-[3-(4-acetylpiperazin-1-yl)propoxy]phenyl]piperidin-1-yl]-3-(trifluoromethyl)-7,8-dihydro[1,2,4]triazolo[4,3-b]pyridazine]	23.8 µM
